These results are taken from patent US20230095021A1, “MODULATORS OF TDP-43” (Alteron Therapeutics, Inc., priority 2019, published 2023).

Test [1] has as its system CFTR. The experiment in a line: CFTR localization, immunofluorescence microscopy, U-87 MG cells. It counts as cell-based. The note with it: 4 μM, 3 days. On the procedure: (§1) MDA-MB-231 and U-87 MG cells were cultured on cover slips under the conditions as described above. Cells were treated with DMSO or 4 μM ALT-59 for 3 days. Primary human bronchial epithelial cells isolated from cystic fibrosis patient homozygous for Phe508del-CFTR (Lifeline Cell Technology) were cultured on cover slips in BronchiaLife Cell Culture Medium supplemented with BrochiaLife LifeFactors Kit (Lifeline Cell Technology) and maintained at 37° C. in a CO2 incubator. Cells were treated with DMSO, 4 μM ALT-59, 2 μM ALT-308, or 4 μM ALT-410 for 3 days.
(§2) Cells were fixed in 4% paraformaldehyde for 15 minutes and permeabilized in 0.1% Triton X-100 for 2 minutes. After being blocked in 5% BSA (Sigma-Aldrich), cells were incubated with anti-CFTR antibody (Alomone Labs) followed by Alexa Fluor 488 anti-rabbit secondary antibody. Reagents were buffered in GIBCO PBS (Phosphate-Buffered Saline). Images were taken using Carl Zeiss LSM 510 Laser Scanning Microscope. Parameters were set identical for all images.

Test [2] relates to CFTR. The experiment in a line: CFTR localization, immunofluorescence microscopy, MDA-MB-231 cells. The class given is cell-based. The note with it: 4 μM, 3 days. On the procedure: as §1, §2
Test [3] has as its system transgenic C. elegans expressing full-length (wild-type) human TDP-43. Put plainly: Paralysis caused by hTDP-43 expression in C. elegans. The class given is in vivo. The note with it: 10 μM ALT-59 in NGM plates. On the procedure: Wild-type N2 strain or transgenic C. elegans expressing full-length (wild-type) human TDP-43 (strain number, CL6049, Caenorhabditis Genetics Center, Minneapolis, Minn.) were placed on freshly prepared Nematode Growth Medium (NGM) petri plates with or without 10 μM ALT-59.
Uncoordinated phenotypes were imaged, and movement deficits were quantified by counting body thrashes in liquid after recording under an inverted microscope.

Test [4] deals with Phe508del-CFTR. Put plainly: Phe508del-CFTR localization, immunofluorescence microscopy, primary bronchial epithelial cells of a cystic fibrosis patient. The class given is cell-based, human. The following applies: primary bronchial epithelial cells homozygous for Phe508del-CFTR, 4 μM, 3 days. How it is done: as §1, §2
Test [5] deals with CFTR exon 9. The experiment in a line: CFTR exon 9 splicing, RT-PCR. It counts as cell-based. The following applies: MDA-MB-231 cells. On the procedure:
Long stretches of TG repeats are found in exon 9 and intron 9 of Lamp2 gene. A shorter stretch is located in intron 10. […] RT-PCR analysis was performed to test if ALT-59 treatment affects LAMP2 alternative splicing. MDA-MB-231 cells were cultured as described above and treated with DMSO or 6 μM ALT-59. Total RNA was extracted using the RNeasy Mini Kit (Qiagen) and equal amount of RNA was reverse transcribed using the SuperScript III First-Strand Synthesis System (Invitrogen). PCR reactions were performed using forward primer located on exon 1 and a reverse primer located on exon 11. PCR samples were resolved in a 1.2% agarose gel and stained with ethidium bromide.
It has been reported that TDP-43 causes CFTR exon 9 skipping, ApoA2 exon 3 skipping, and POLDIP3 exon 3 inclusion. Additional experiments were performed to further confirm that TDP-43 is the target of ALT-59. RT-PCR analysis was performed as described above using the following primers for the three genes. PCR samples were analyzed by polyacrylamide gel electrophoresis and stained with ethidium bromide.

In test [6] the test system is Beta-secretase 1 (BACE1). Put plainly: BACE1 protein level, Western blot in U-87 MG cells. The class given is cell-based. The note with it: 2 days. How it is done: (§3) U-87 MG and T98G cells were maintained at 37° C. in a CO2 incubator in Dulbecco's Modified Eagle's Medium (DMEM) supplemented with 10% fetal bovine serum (FBS) and 1% of penicillin/streptomycin (Invitrogen). Cells were treated with DMSO, 3 μM, or 6 μM ALT-59 for 2 days and subjected to Western blotting analysis using the indicated antibodies. Protein bands were quantified using the ImageJ software.

Test [7] has as its system BACE1. Put plainly: Screening for ALT-59 derivatives with BACE1 protein levels as indicator, U-87 MG cells. The class given is cell-based. The following applies: 2 days, concentrations as indicated in FIGS. 15-17. On the procedure: Additional experiments were performed to screen for compounds with higher potency and the ability to penetrate blood brain barrier using BACE1 protein levels as an indicator. U-87 MG cells were cultured as described previously and treated for 2 days with compounds at concentrations as indicated in FIGS. 15-17. Cells were then subjected to Western blotting analysis using anti-BACE1 and anti-beta-actin antibodies.

For test [8], the target named is T1, TDP-43 (Homo sapiens, UniProt Q13148).
T1 construct: added to whole cell lysate containing 5 mg protein; endogenous in cells; host or cells: MDA-MB-231 and PLC/PRF/5 whole cell lysates
The experiment in a line: Solid phase compound-protein complex pull-down with mass spectrometry protein identification. The class given is binding. The following applies: precipitated proteins from PLC/PRF/5 and MDA-MB-231 cell lysates. How it is done: MDA-MB-231 and PLC/PRF/5 cells were maintained at 37° C. in a CO2 incubator in Dulbecco's Modified Eagle's Medium (DMEM) supplemented with 10% fetal bovine serum (FBS) and 1% of penicillin/streptomycin (Invitrogen).
The cells were lysed in lysis buffer containing 20 mM 4-(2-hydroxyethyl)-1-piperazineethanesulfonic acid (HEPES), pH 7.5, 0.3% 3-[(3-cholamidopropyl)dimethylammonio]-1-propanesulfonate (CHAPS), 150 mM NaCl, (Sigma-Aldrich), and protease inhibitor cocktail (Roche) with rotation at 4° C. for one hour followed by centrifugation at 15000 for 20 minutes. Ten milligrams of ALT-59 dissolved in DMSO at 20 mM were added to whole cell lysate containing 5 mg protein and incubated on ice for one hour. Compound precipitates out due to high hydrophobicity. Compound-protein complex were spun down at 1000 rpm and washed 5 times with lysis buffer to remove unbound protein. The compound-protein complex were boiled in SDS-PAGE protein sample buffer (1×) (80 mM Tris-HCl, pH 6.8, 2% SDS, 10% Glycerol, 0.1% Bromophenol blue.
For silver staining, proteins were separated on a 10% SDS-PAGE gel. To prepare samples for protein identification using mass spectrometry, protein samples were run into stacking gel and the electrophoresis was stopped after samples were compressed into single bands. […]

For test [9], the system named is MAP2. Put plainly: MAP2 expression, Western blot in U-87 MG cells. The class given is cell-based. The following applies: 2 days. How it is done:
as §3

T1 sequence (Q13148 whole entry): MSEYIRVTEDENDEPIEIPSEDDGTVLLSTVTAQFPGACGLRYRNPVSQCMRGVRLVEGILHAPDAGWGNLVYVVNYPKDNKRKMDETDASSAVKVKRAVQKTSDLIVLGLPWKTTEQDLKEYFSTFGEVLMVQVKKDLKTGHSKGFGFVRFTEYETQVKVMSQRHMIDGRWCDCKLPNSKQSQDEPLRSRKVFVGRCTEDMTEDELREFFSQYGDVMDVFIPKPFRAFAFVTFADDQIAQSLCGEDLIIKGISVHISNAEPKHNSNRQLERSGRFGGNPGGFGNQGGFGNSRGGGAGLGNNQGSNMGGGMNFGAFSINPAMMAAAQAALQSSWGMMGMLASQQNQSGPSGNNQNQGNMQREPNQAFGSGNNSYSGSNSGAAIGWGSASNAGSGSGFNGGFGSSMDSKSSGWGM

With `CN(C)c1ccc(C2Nc3ccc4ccccc4c3C3=C2C(=O)CC(C)(C)C3)cc1Br` (stereo not drawn) [ALT-59, 5-(3-bromo-4-(dimethylamino)phenyl)-2,2-dimethyl-2,3,5,6-tetrahydrobenzo[a]phenanthridin-4(1H)-one], the CFTR localization result in test [1] and in test [2] was “redistribution of CFTR from the perinuclear region to the plasma membrane” in each case. In addition, the “coiled body posture and uncoordinated phenotype” value in [3] is “rescued the coiled body posture and uncoordinated phenotype”. This compound returned a percentage of paralysis in [3] (without treatment 93%) of 29.5%. For the same compound, the “localization of Phe508del-CFTR on the plasma membrane” value in test [4] was “increased localization of Phe508del-CFTR on the plasma membrane”. In test [5], the “CFTR exon 9 inclusion” value was “capable of promoting CFTR exon 9 inclusion”. Moreover, the “reduction of BACE1 protein level” value in test [6] (3 μM) is 20%; in [6] (6 μM), 50%. The BACE1 protein expression result in [7] is given as “capable of lowering BACE1 expression”. Also, the “ALT-59 binding proteins identified by mass spectrometry” value in test [8] was “TDP-43 (boxed) was ranked as the top hit”. In addition, the “increase of MAP2 expression” value in [9] (3 μM) is recorded as 1.42 folds; in [9] (6 μM) it was 2.51 folds.
